{
  "source": "patent USRE47689E1",
  "about": "“Compounds for treating spinal muscular atrophy” (PTC Therapeutics, Inc., priority 2011, dated 2019)",
  "key": {"Smn protein": {"system": "Smn protein", "assay": "Smn protein in tissues of neonatal Δ7 SMA mice", "format": "in vivo, mouse", "conditions": "neonatal SMA Δ7 homozygous knockout mice; brain, spinal cord, muscle; IP QD from PND 3 to day 9", "description": "Protocol. The tissue samples in Safe-Lock tubes are weighed and the volume of RIPA buffer containing the protease inhibitor cocktail is added based on the weight to volume ratios for each type of tissue: Brain (50 mg/mL), Muscle (50 mg/mL) and Spinal Cord (25 mg/mL).\nTissues are homogenized using the TissueLyzer by bead milling. 5 mm stainless steel beads are added to the sample and shaken vigorously for 5 minutes at 30 Hz in the TissueLyzer. The samples are then centrifuged for 20 minutes at 14,000×g in a microcentrifuge and the homogenates transferred to the PCR plate. The homogenates are diluted in RIPA buffer to approximately 1 mg/mL for HTRF and approximately 0.5 mg/mL for total protein measurement using the BCA protein assay. […] Fluorescence for each well of the plate at 665 nm and 620 nm is measured on an EnVision multilabel plate reader (Perkin-Elmer). The total protein in the tissue homogenate is measured using the BCA assay according to the manufacturer's protocol.\nThe normalized fluorescence signal is calculated for each sample, Blank and vehicle control well by dividing the signal at 665 nm by the signal at 620 nm. Normalizing the signal accounts for possible fluorescence quenching due to the matrix effect of the tissue homogenate. […] The ΔF value for each tissue sample well is divided by the total protein quantity (determined using the BCA assay) for that tissue sample. […]"}, "[1]": {"system": "full length and Δ7 SMN2 mRNAs", "assay": "Endogenous SMN2 mRNA end-point semi-quantitative RT-PCR splicing assay in cultured cells", "format": "cell-based, human", "conditions": "GM03813 Type 1 SMA patient fibroblasts, increasing concentrations, 24 hrs, agarose gel", "description": "The endpoint reverse transcription-PCR splicing assay is used to visualize and quantify the levels of the full length and Δ7 SMN2 mRNAs in primary cells and cell lines containing the SMN2 gene treated with a test compound.\nProtocol. GM03813 SMA patient cells (5,000 cells/well) are seeded in 200 μL of cell culture medium (DMEM plus 10% FBS) in 96-well flat-bottom plates and the plate is immediately swirled to ensure proper dispersal of cells, forming an even monolayer of cells. Cells are allowed to attach for at least 4-6 hrs. Test compounds are serially diluted 3.16-fold in 100% DMSO to generate a 7-point concentration curve. A solution of test compound (1 μL, 200× in DMSO) is added to each test well and 1 μL DMSO is added to each control well. The plate is incubated for 24 hrs in a cell culture incubator (37° C., 5% CO2, 100% relative humidity). The cells are then lysed in Cells-To-Ct lysis buffer and the lysate is stored at −80° C.\nSMN FL and Δ7 mRNAs are identified using the following primers in Table 6. These primers hybridize to a nucleotide sequence in exon 6 (SMN Forward C, SEQ ID NO. 11) (nucleotide 43 to nucleotide 63) and exon 8 (SMN Reverse C, SEQ ID NO. 12) (nucleotide 51 to nucleotide 73) common to human SMN1 and SMN2 mRNAs. Since the SMA patient cells used in Example 4 contain only the SMN2 gene, RT-PCR can visualize and quantify only SMN2 full-length and SMN2 Δ7 mRNAs.\nTo synthesize cDNA, 5 μL of lysate, 4 μL of 5× iScript reaction mix, 1 μL of reverse transcriptase, and 10 μL of water are combined and incubated 5 min at 25° C. followed by 30 min at 42° C., followed by 5 min at 85° C. cDNA solution is stored at −20° C.\nTo perform endpoint PCR, 5 μL of cDNA, 0.2 μL of 100 μM forward primer, 0.2 μL of 100 μM reverse primer, and 22.5 μL of polymerase super mix are combined in a 96 well semiskirted PCR plate. PCR is carried out at the following temperatures for indicated time: Step 1: 94° C. (2 min), Step 2: 94° C. (30 sec), Step 3: 55° C. (30 sec), Step 4: 68° C. (1 min), then repeat Steps 2 to 4 for a total of 33 cycles, then hold at 4° C.\n10 μL of each PCR sample is electrophoretically separated on a 2% agarose E-gel for 14 minutes stained with ds DNA staining reagents (e.g., ethidium bromide) and visualized using a gel imager."}, "[2]": {"system": "SMA Δ7 homozygous knockout mice", "assay": "Body weight of neonatal Δ7 SMA mice", "format": "in vivo, mouse", "conditions": "IP QD from PND 3, then orally BID until study end, compared to vehicle", "description": "The change in body weight of neonatal SMA mice is used to determine whether treatment with a test compound improves body weight.\nProtocol. SMA Δ7 homozygous knockout mice are dosed intraperitoneally (IP) with test compound or vehicle (100% DMSO) once per day (QD) from postnatal day (PND) 3 until the dose regimen is switched to an oral dose twice per day (BID) in 0.5% hydroxypropylmethyl cellulose (HPMC) with 0.1% Tween-80 at a dose 3.16-fold higher than the dose used for IP. Body weights of SMA Δ7 mice treated with test compound or vehicle and age matched heterozygous mice are recorded every day."}},
  "data": [
    {"smiles": "CC(C)NCCc1ccc2cc(-c3nc4c(Cl)cccc4s3)c(=O)oc2c1", "note": "[Cpd 35, 3-(4-chloro-1,3-benzothiazol-2-yl)-7-[2-(propan-2-ylamino)ethyl]-2H-chromen-2-one]", "values": [
      {"measurement": "total protein normalized Smn level", "setting": "Smn protein", "result": "dose dependently increased"},
      {"measurement": "SMN2 FL mRNA", "setting": "[1]", "result": "progressively more SMN2 FL mRNA"},
      {"measurement": "SMN2 Δ7 mRNA", "setting": "[1]", "result": "less SMN2 Δ7 mRNA"},
      {"measurement": "body weight", "setting": "[2]", "result": "improved compared to vehicle treated mice"}
    ]},
    {"smiles": "CCN1CCN(c2ccc3cc(-c4cn5cc(C)nc(C)c5n4)c(=O)oc3c2)C[C@@H]1C", "note": "[Cpd 626, 3-(6,8-dimethylimidazo[1,2-a]pyrazin-2-yl)-7-[(3S)-4-ethyl-3-methylpiperazin-1-yl]-2H-chromen-2-one]", "values": [
      {"measurement": "total protein normalized Smn level", "setting": "Smn protein", "result": "dose dependently increased"},
      {"measurement": "SMN2 FL mRNA", "setting": "[1]", "result": "progressively more SMN2 FL mRNA"},
      {"measurement": "SMN2 Δ7 mRNA", "setting": "[1]", "result": "less SMN2 Δ7 mRNA"},
      {"measurement": "body weight", "setting": "[2]", "result": "improved compared to vehicle treated mice"}
    ]}
  ]
}
